Laboratory results taken from article PMC6882446, “Further validation of strecker-type α-aminonitriles as a new class of potent human carbonic anhydrase II inhibitors: hit expansion within the public domain using differential scanning fluorimetry leads to chemotype refinement” (Journal of Enzyme Inhibition and Medicinal Chemistry, 2019).

What follows are compounds tested against T1, bCA (Bos taurus, UniProt P00921) (assay: biochemical). Conditions: not given.
T1 construct: gene CA2; commercial bovine carbonic anhydrase
Design: Differential scanning fluorimetry (SYPRO Orange) melting temperature shift of bCA, 20 uM compound
Protocol: (§1) Thermal shift assay was carried out using ViiA™ 7 Real-Time PCR System equipped with 384-well block (Applied Biosystems, USA). The TSA procedure was adopted from the literature[6–8] and was modified in order to allow measuring the bCA melting temperature on interaction with various compounds, including the known CA inhibitor azetazolamide (AZ)[9], which was used in this study as a reference bCA binder at 10 and 20 µM concentration. For 800-compound screening, the test reactions were set up in the following buffer: 10 mM NaH2PO4/Na2HPO4, pH 7.0, 10 mM NaCl. The total volume of the reaction mixture per well was 10 µL. Carbonic anhydrase (Sigma Aldrich Cat# C3934) in 300 µg/mL concentration was pre-mixed with environment-sensitive SYPRO orange dye (Invitrogen, Cat# S6650) at final concentration in the reaction of 10 ×, with regard to the stock concentration stated by the vendor. The mixtures were pre-incubated for 1 h at 4 °C with 20 µM concentrations of the compounds (and 1% final concentration of DMSO), placed into MicroAmp® Optical 384-Well Reaction Plate (ThermoFisher, Cat# 4309849). The reaction mixture was kept at room temperature for 15 min to ensure full protein-compound interactions. The temperature was raised at 1.6 °C/s rate to 40 °C without signal reading. Starting from 40 °C up to 85 °C the heating rate was set to 0.05 °C/s with constant fluorescence reading, using 470/623 nm filter set. The raw data of dye fluorescence intensity change upon melting of the protein were obtained from the instrument ViiA 7 RUO software. Further data processing and visualisation was performed by custom-made Microsoft Excel scripts. The peak of the first derivative for the fluorescence curve was used to define melting temperature Tm. Tm for DMSO control wells, having only protein, dye and 1% DMSO was used as a To to determine melting temperature shifts (ΔTm). All measurements were made in quadruplicates.

T1 sequence (P00921 2-260): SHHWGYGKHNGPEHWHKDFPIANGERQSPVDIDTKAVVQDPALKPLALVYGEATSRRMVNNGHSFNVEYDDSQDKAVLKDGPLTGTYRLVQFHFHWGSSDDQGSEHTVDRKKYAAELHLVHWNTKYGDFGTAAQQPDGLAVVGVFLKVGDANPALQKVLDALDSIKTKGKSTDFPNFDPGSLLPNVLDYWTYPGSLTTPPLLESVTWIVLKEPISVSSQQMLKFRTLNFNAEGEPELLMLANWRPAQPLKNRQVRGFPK

Row | ΔTm at 20 µM [°C] | Compound
1 | 1.5 | CC(C)C(C#N)N1CCN(c2ncnc3ccsc23)CC1 (stereo not drawn) [compound 16, Z1251205249]
2 | 1.14 | CC(C)C(C#N)N1CCN(CC(=O)NCc2ccccn2)CC1 (stereo not drawn) [compound 17, Z1176496598]
3 | 1.41 | CCNC(=O)CCCC(=O)N1CCN(C(C#N)c2ccccc2)CC1 (stereo not drawn) [compound 18, Z1185260979]
4 | 1.64 | COc1ccc(C(C#N)N2CCN(C(=O)C3CCCCC3)CC2)cc1 (stereo not drawn) [compound 30, Z146384300]
5 | 1.55 | CCc1noc(CC)c1CC(=O)N1CCN(C(C#N)C(C)C)CC1 (stereo not drawn) [compound 31, Z1390085782]
6 | 1.82 | Cc1ccccc1CN1CCN(C(=O)CN2CCN(C(C#N)C(C)C)CC2)CC1 (stereo not drawn) [compound 35, Z1171402445]
7 | 1.37 | Cn1cc(CN2CCN(C(C#N)c3ccccc3)CC2)c(-c2cccnc2)n1 (stereo not drawn) [compound 50, Z1470771430]

Target: T1, bCA
Assay: biochemical
Design: differential scanning fluorimetry (thermal shift) with SYPRO Orange, bovine carbonic anhydrase
Conditions: not given
Remark: another data set of the same source
Protocol: as §1, with “For” for “Thermal shift assay was carried out using ViiA™ 7 Real-Time PCR System equipped with 384-well block (Applied Biosystems, USA). The TSA procedure was adopted from the literature[6–8] and was modified in order to allow measuring the bCA melting temperature on interaction with various compounds, including the known CA inhibitor azetazolamide (AZ)[9], which was used in this study as a reference bCA binder at 10 and 20 µM concentration. For”, “quadruplicates. Thermal shift assay was carried out using ViiA™ 7 Real-Time PCR System equipped with 384-well block (Applied Biosystems, USA). The TSA procedure was adopted from the literature[6–8] and was modified in order to allow measuring the bCA melting temperature on interaction with various compounds, including the known CA inhibitor azetazolamide (AZ)[9], which was used in this study as a reference bCA binder at 10 and 20 µM concentration.” for “quadruplicates.”

Row | ΔTm at 20 µM [°C] | Compound
8 | 1.64 | CC(C)C(C#N)N1CCN(C(=O)CSc2ccc(Br)cc2)CC1 (stereo not drawn) [compound 36]
9 | 1.64 | CC(C)C(C#N)N1CCN(C(=O)C2CCCO2)CC1 (stereo not drawn) [compound 39]
10 | 1.37 | COc1ccc(C(=O)N2CCN(C(C#N)C(C)C)CC2)cc1OC(F)F (stereo not drawn) [compound 46]
11 | 1.19 | CC(C)C(C#N)N1CCN(Cc2nccn2CC(F)(F)F)CC1 (stereo not drawn) [compound 47]

What follows are compounds tested against T2, hCA II (Homo sapiens, UniProt P00918) (assay: stopped-flow CO2 hydration assay). Conditions: not given.
T2 construct: gene CA2; recombinant human CA II, obtained in-house
Type: biochemical
Excerpt: stopped-flow CO2 hydration assay on hCA II

Row | Ki [µM] | Compound
12 | 0.97 | CC(C)C(C#N)N1CCN(c2ncnc3ccsc23)CC1 (stereo not drawn) [compound 16, Z1251205249]
13 | 0.78 | CC(C)C(C#N)N1CCN(CC(=O)NCc2ccccn2)CC1 (stereo not drawn) [compound 17, Z1176496598]
14 | 0.93 | CCNC(=O)CCCC(=O)N1CCN(C(C#N)c2ccccc2)CC1 (stereo not drawn) [compound 18, Z1185260979]
15 | 0.91 | COc1ccc(C(C#N)N2CCN(C(=O)C3CCCCC3)CC2)cc1 (stereo not drawn) [compound 30, Z146384300]
16 | 0.76 | CCc1noc(CC)c1CC(=O)N1CCN(C(C#N)C(C)C)CC1 (stereo not drawn) [compound 31, Z1390085782]
17 | 0.86 | CNS(=O)(=O)CCCN1CCN(C(C#N)c2ccccc2)CC1 (stereo not drawn) [compound 32, Z1395303258]
18 | 60.5 | Cc1ccccc1CN1CCN(C(=O)CN2CCN(C(C#N)C(C)C)CC2)CC1 (stereo not drawn) [compound 35, Z1171402445]
19 | 29.8 | CC(C)C(C#N)N1CCN(C(=O)CSc2ccc(Br)cc2)CC1 (stereo not drawn) [compound 36, Z1167646026]
20 | 20.4 | CC(C)C(C#N)N1CCN(C(=O)C2CCCO2)CC1 (stereo not drawn) [compound 39, Z1167645477]
21 | 3.7 | COc1ccc(C(=O)N2CCN(C(C#N)C(C)C)CC2)cc1OC(F)F (stereo not drawn) [compound 46, Z1126852482]
22 | 38.2 | CC(C)C(C#N)N1CCN(Cc2nccn2CC(F)(F)F)CC1 (stereo not drawn) [compound 47, Z1176495724]
23 | 0.68 | Cn1cc(CN2CCN(C(C#N)c3ccccc3)CC2)c(-c2cccnc2)n1 (stereo not drawn) [compound 50, Z1470771430]

Same assay, conditions: CO2 […]; […] Hepes pH […]; […] Na2SO4; room temperature; […] min pre-incubation

Row | Ki [µM] | Compound
24 | > 100 | COc1ccc(C(C#N)N2CCN(C(=O)c3ccc(Br)cc3)CC2)cc1 (stereo not drawn) [compound 4, Z118259550]
25 | 8.1 | N#CC(Nc1ccc(F)cc1)c1ccco1 (stereo not drawn) [compound 5, Z131022682]
26 | > 100 | COc1ccc(C(C#N)N2CCN(C(=O)c3ccc4[nH]c5c(c4c3)CC(C)CC5)CC2)cc1 (stereo not drawn) [compound 7, Z118259780]
27 | 74.3 | N#CC(c1ccccc1)N1CCN(C(=O)C2CCN(S(=O)(=O)c3ccccc3F)CC2)CC1 (stereo not drawn) [compound 8, Z118260178]
28 | > 100 | COc1ccc(C(C#N)N2CCN(C(=O)c3ccc(S(=O)(=O)N4CCCCCC4)cc3)CC2)cc1 (stereo not drawn) [compound 9, Z118259626]
29 | 53.7 | N#CC(c1ccccc1)N1CCN(C(=O)c2ccccc2)CC1 (stereo not drawn) [compound 10, Z146786712]
30 | 40.9 | N#CC(C1CCCCC1)N1CCN(C(=O)CCc2ccccn2)CC1 (stereo not drawn) [compound 12, Z913897024]
31 | 7.4 | CC1(C)CN(C(C#N)c2ccc(Cl)cc2)CCO1 (stereo not drawn) [compound 13, Z1097120891]
32 | 9.3 | CCNC(=O)C1CCCN(C(C#N)c2c(F)cccc2Cl)C1 (stereo not drawn) [compound 14, Z1230758078]
33 | > 100 | CC(C)C(C#N)N1CCN(c2ncnc3cc(F)ccc23)CC1 (stereo not drawn) [compound 15, Z1251205230]
34 | 9.6 | N#CC1CN(C(=O)CCc2ccsc2)CCN1Cc1ccccc1 (stereo not drawn) [compound 19, Z1204316164]
35 | 100 | Cc1cnc(C(=O)N2CCN(Cc3ccccc3)C(C#N)C2)cn1 (stereo not drawn) [compound 20, Z1204317166]
36 | > 100 | N#Cc1nccnc1N1CCN(Cc2ccccc2)C(C#N)C1 (stereo not drawn) [compound 21, Z1205181012]
37 | > 100 | CCC(CC)c1cc(C(=O)N2CCN(C(C#N)C(C)C)CC2)on1 (stereo not drawn) [compound 22, Z1261078980]
38 | 9.1 | CC(C)C(C#N)N1CCN(C(=O)c2scnc2C(C)(C)C)CC1 (stereo not drawn) [compound 23, Z1322755479]
39 | 16 | N#CC(c1c(F)cccc1Cl)N1CCCC(N2CCNC2=O)C1 (stereo not drawn) [compound 24, Z1298330150]

Row | Ki [µM] | Compound
40 | 36.1 | N#CC(c1c(F)cccc1Cl)N1CCC(N2CCCC2=O)CC1 (stereo not drawn) [compound 25, Z1298979831]
41 | 3 | CNC(=O)C1CCN(C(C#N)c2c(F)cccc2Cl)CC1 (stereo not drawn) [compound 26, Z1297989190]
42 | > 100 | CC(C)C(C#N)N1CCN(C(=O)C/C=C/c2cccc(F)c2)CC1 (stereo not drawn) [compound 27, Z1343956502]
43 | 8.9 | N#CC(c1ccccc1)N1CCN(CC(=O)NC2CCOCC2)CC1 (stereo not drawn) [compound 28, Z1317906129]
44 | 3.7 | N#CC(c1ccccc1)N1CCN(Cc2cccnc2)CC1 (stereo not drawn) [compound 29, Z1317905741]
45 | 5.3 | N#CC(c1ccccc1)N1CCN(CC(=O)NCC2CCC2)CC1 (stereo not drawn) [compound 33, Z1395304494]
46 | 5 | Cc1ccc(N(CC(=O)N2CCN(C(C#N)C(C)C)CC2)C(C)C)cc1 (stereo not drawn) [compound 34, Z1567293695]
47 | 2.3 | N#CC(c1ccccc1)N1CCN(CC2CCOC2)CC1 (stereo not drawn) [compound 37, Z1395305944]
48 | 5 | N#CC(c1ccc(Br)cc1)N1CCN(CCN2C(=O)CNC2=O)CC1 (stereo not drawn) [compound 38, Z1567199718]
49 | 41.9 | CC(C#N)N1CCN(C(=O)OC(C)(C)C)CC1 (stereo not drawn) [compound 40, Z1124717499]
50 | 35.1 | Cc1ccc(C(=O)NCC(=O)N2CCN(C(C#N)C(C)C)CC2)cc1 (stereo not drawn) [compound 41, Z1416783341]
51 | > 100 | N#CC1COCCN1 (stereo not drawn) [compound 43, Z1198234963]
52 | 40.9 | CC(C)C(C#N)N1CCN(C(=O)CN2CCOC(c3ccc(F)cc3)C2)CC1 (stereo not drawn) [compound 45, Z1567277098]
53 | 5.5 | Cc1ccc(C(=O)C2CCN(CC(=O)N3CCN(C(C#N)C(C)C)CC3)CC2)cc1 (stereo not drawn) [compound 48, Z1567280757]
54 | 3.5 | N#CC(c1ccccc1)N1CCN(CC(=O)NCC(F)(F)F)CC1 (stereo not drawn) [compound 49, Z1317905463]
